Source: patent US12098139B2, “Chemokine receptor modulators and uses thereof” (RAPT Therapeutics, Inc., priority 2018, dated 2024)

molecular target: T1, hCCR4 (Chem5-hCCR4 cells) (Homo sapiens, UniProt P51679); assay: Calcium flux assay (CCL22-stimulated, FLIPR Calcium 6 dye); format: cell-based; conditions: Table 3, CCL22 1.5 nM, read-out: Potency (IC50)
T1 sequence (P51679 1-360): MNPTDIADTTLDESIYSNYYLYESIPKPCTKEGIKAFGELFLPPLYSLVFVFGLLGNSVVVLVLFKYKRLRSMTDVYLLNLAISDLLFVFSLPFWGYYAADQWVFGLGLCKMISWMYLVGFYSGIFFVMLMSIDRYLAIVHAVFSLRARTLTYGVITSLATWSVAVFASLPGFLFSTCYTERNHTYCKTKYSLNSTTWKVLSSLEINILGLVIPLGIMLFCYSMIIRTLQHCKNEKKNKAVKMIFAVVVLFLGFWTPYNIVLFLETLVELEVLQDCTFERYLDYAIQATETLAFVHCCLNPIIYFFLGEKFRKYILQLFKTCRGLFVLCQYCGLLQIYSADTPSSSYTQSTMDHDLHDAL
Procedure, shortened: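 Chem5-hCCR4 cells were serum-starved 2 h and loaded 2 h with Calcium 6 dye plus 2.5 mM probenecid. They were then preincubated 1 h at 37 °C with compound (0.5% DMSO). CCL22 was added from a 7.5 nM working solution (5× EC80), and ΔF/Fmin at 485/525 nm was fitted 4-parameter for IC50.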

IC50 [nM] | Structure (SMILES)
< 100 | C[C@@H](Nc1nc(N2CC([C@H]3CCCN(CCO)C3)C2)ncc1Cl)c1ccc(Cl)cc1Cl [Example 10, 2-((R)-3-(1-(5-chloro-4-(((R)-1-(2,4-dichlorophenyl)ethyl)amino)pyrimidin-2-yl)azetidin-3-yl)piperidin-1-yl)ethan-1-ol]
< 100 | C[C@@H](Nc1nc(N2CC([C@H]3CCCN(CCO)C3)C2)nc2ccccc12)c1ccc(Cl)cc1Cl [Example 26, 2-((R)-3-(1-(4-(((R)-1-(2,4-dichlorophenyl)ethyl)amino)quinazolin-2-yl)azetidin-3-yl)piperidin-1-yl)ethan-1-ol]
> 500 | C[C@@H](Nc1nc(N2CC([C@H]3CCCN(CCO)C3)C2)ncc1C(=O)O)c1ccc(Cl)cc1Cl [Example 33, 4-(((R)-1-(2,4-dichlorophenyl)ethyl)amino)-2-(3-((R)-1-(2-hydroxyethyl)piperidin-3-yl)azetidin-1-yl)pyrimidine-5-carboxylic acid]
100 to 500 | C[C@@H](Nc1nc(N2CC(C3CCCN(CCN4CCCC4=O)C3C(=O)O)C2)ncc1Cl)c1ccc(Cl)cc1Cl (stereo partly drawn) [Example 34, 3-(1-(5-chloro-4-(((R)-1-(2,4-dichlorophenyl)ethyl)amino)pyrimidin-2-yl)azetidin-3-yl)-1-(2-(2-oxopyrrolidin-1-yl)ethyl)piperidine-2-carboxylic acid]
< 100 | C[C@@H](Nc1nc(N2CC([C@H]3CCCN(CCO)C3)C2)ncc1Br)c1ccc(Cl)cc1Cl [Example 11, 2-((R)-3-(1-(5-bromo-4-(((R)-1-(2,4-dichlorophenyl)ethyl)amino)pyrimidin-2-yl)azetidin-3-yl)piperidin-1-yl)ethan-1-ol]
< 100 | C[C@@H](Nc1nc(N2CC([C@H]3CCCN([C@H]4C[C@@H](C(=O)O)C4)C3)C2)ncc1Br)c1ccc(Cl)cc1Cl [Example 9, (1S,3s)-3-((R)-3-(1-(5-bromo-4-(((R)-1-(2,4-dichlorophenyl)ethyl)amino)pyrimidin-2-yl)azetidin-3-yl)piperidin-1-yl)cyclobutane-1-carboxylic acid]
< 100 | C[C@@H](Nc1nc(N2CC([C@H]3CCCN([C@H]4C[C@](C)(C(=O)O)C4)C3)C2)ncc1C1CC1)c1ccc(Cl)cc1Cl [Example 41, (1R,3r)-3-((R)-3-(1-(5-cyclopropyl-4-(((R)-1-(2,4-dichlorophenyl)ethyl)amino)pyrimidin-2-yl)azetidin-3-yl)piperidin-1-yl)-1-methylcyclobutane-1-carboxylic acid]
< 100 | Cc1cnc(N2CC([C@H]3CCCN(CCN4CCCC4=O)C3)C2)nc1N[C@H](C)c1ccc(Cl)cc1Cl [Example 16, 1-(2-((R)-3-(1-(4-(((R)-1-(2,4-dichlorophenyl)ethyl)amino)-5-methylpyrimidin-2-yl)azetidin-3-yl)piperidin-1-yl)ethyl)pyrrolidin-2-one]
< 100 | C[C@@H](Nc1nc(N2CC([C@H]3CCCN([C@H]4C[C@](C)(C(=O)O)C4)C3)C2)ncc1Br)c1ccc(Cl)cc1Cl [Example 13, (1R,3r)-3-((R)-3-(1-(5-bromo-4-(((R)-1-(2,4-dichlorophenyl)ethyl)amino)pyrimidin-2-yl)azetidin-3-yl)piperidin-1-yl)-1-methylcyclobutane-1-carboxylic acid]
> 500 | C[C@@H](Nc1nc(N2CC([C@H]3CCCN(CCO)C3)C2)ncc1C#N)c1ccc(S(C)(=O)=O)cc1Cl [Example 42, 4-(((R)-1-(2-chloro-4-(methylsulfonyl)phenyl)ethyl)amino)-2-(3-((R)-1-(2-hydroxyethyl)piperidin-3-yl)azetidin-1-yl)pyrimidine-5-carbonitrile]
< 100 | C[C@@H](Nc1nc(N2CC([C@H]3CCCN([C@H]4C[C@@](C)(C(=O)O)C4)C3)C2)nc2ccccc12)c1ccc(Cl)cc1Cl [Example 27, (1S,3s)-3-((R)-3-(1-(4-(((R)-1-(2,4-dichlorophenyl)ethyl)amino)quinazolin-2-yl)azetidin-3-yl)piperidin-1-yl)-1-methylcyclobutane-1-carboxylic acid]
< 100 | C[C@@H](Nc1nc(N2CC([C@H]3CCCN([C@H]4C[C@](C)(C(=O)O)C4)C3)C2)nc2sccc12)c1ccc(Cl)cc1Cl [Example 29, (1R,3r)-3-((R)-3-(1-(4-(((R)-1-(2,4-dichlorophenyl)ethyl)amino)thieno[2,3-d]pyrimidin-2-yl)azetidin-3-yl)piperidin-1-yl)-1-methylcyclobutane-1-carboxylic acid]
100 to 500 | C[C@@H](Nc1cncc(N2CC([C@H]3CCCN(CCO)C3)C2)n1)c1ccc(Cl)cc1Cl [Example 2, 2-((R)-3-(1-(6-(((R)-1-(2,4-dichlorophenyl)ethyl)amino)pyrazin-2-yl)azetidin-3-yl)piperidin-1-yl)ethan-1-ol]
100 to 500 | C[C@@H](Nc1nc(N2CC([C@H]3CCCN(C4CCCC4C(=O)O)C3)C2)cnc1C#N)c1ccc(Cl)cc1Cl (stereo partly drawn) [Example 6, 2-((R)-3-(1-(5-cyano-6-(((R)-1-(2,4-dichlorophenyl)ethyl)amino)pyrazin-2-yl)azetidin-3-yl)piperidin-1-yl)cyclopentane-1-carboxylic acid]
100 to 500 | C[C@@H](Nc1nc(N2CC([C@H]3CCCN([C@H]4C[C@](C)(C(=O)O)C4)C3)C2)ncc1F)c1ccc(Cl)cc1Cl [Example 47, (1R,3r)-3-((R)-3-(1-(4-(((R)-1-(2,4-dichlorophenyl)ethyl)amino)-5-fluoropyrimidin-2-yl)azetidin-3-yl)piperidin-1-yl)-1-methylcyclobutane-1-carboxylic acid]

same assay, conditions: Table 4, CCL22 1.5 nM, read-out: Potency (IC50)

IC50 [nM] | Structure (SMILES)
> 500 | C[C@@H](Nc1cnc(C#N)c(N2CC([C@H]3CCCN(C4CC(C)(C(=O)O)C4)C3)C2)n1)c1ccc(Cl)cc1Cl (single isomer, unassigned) [Example 52]
> 500 | C[C@@H](Nc1nc(N2CC([C@H]3CCCN(C4CC(C)(C(=O)O)C4)C3)C2)cnc1C#N)c1ccc(Cl)cc1Cl (stereo partly drawn) [Example 51, 3-[(1S,3R)-3-[1-[5-cyano-6-[[(1R)-1-(2,4-dichlorophenyl)ethyl]amino]pyrazin-2-yl]azetidin-3-yl]-1-piperidyl]-1-methyl-cyclobutanecarboxylic acid; 2,2,2-trifluoroacetic acid]

same assay, conditions: Table 5, CCL22 1.5 nM, read-out: Potency (IC50)

IC50 [nM] | Structure (SMILES)
100 to 500 | C[C@@H](Nc1nc(N2CC([C@H]3CCCN(CC(=O)N4CCCC4)C3)C2)ncc1Cl)c1ccc(Cl)cc1Cl [Example 56, 2-[(3R)-3-[1-[5-chloro-4-[[(1R)-1-(2,4-dichlorophenyl)ethyl]amino]pyrimidin-2-yl]azetidin-3-yl]-1-piperidyl]-1-pyrrolidin-1-yl-ethanone; 2,2,2-trifluoroacetic acid]
< 100 | C[C@@H](Nc1nc(N2CC([C@H]3CCCN(C4CC(C)(C(=O)O)C4)C3)C2)nc(CF)c1Cl)c1ccc(Cl)cc1Cl (single isomer, unassigned) [Example 89]
< 100 | CC(Nc1nc(N2CC([C@H]3CCCN(CCO)C3)C2)ncc1Cl)c1ccc(Cl)cc1F (stereo partly drawn) [Example 63, 2-[(3R)-3-[1-[5-chloro-4-[1-(4-chloro-2-fluoro-phenyl)ethylamino]pyrimidin-2-yl]azetidin-3-yl]-1-piperidyl]ethanol; 2,2,2-trifluoroacetic acid]
< 100 | C[C@@H](Nc1nc(N2CC([C@H]3CCCN(CCO)C3)C2)nc2sccc12)c1ccc(Cl)cc1Cl [Example 61, 2-[(3R)-3-[1-[4-[[(1R)-1-(2,4-dichlorophenyl)ethyl]amino]thieno[2,3-d]pyrimidin-2-yl]azetidin-3-yl]-1-piperidyl]ethanol; 2,2,2-trifluoroacetic acid]
< 100 | CCC(O)c1cnc(N2CC([C@H]3CCCN([C@H]4C[C@](C)(C(=O)O)C4)C3)C2)nc1N[C@H](C)c1ccc(Cl)cc1Cl (stereo partly drawn) [Example 73, 3-[(3R)-3-[1-[4-[[(1R)-1-(2,4-dichlorophenyl)ethyl]amino]-5-(1-hydroxypropyl)pyrimidin-2-yl]azetidin-3-yl]-1-piperidyl]-1-methyl-cyclobutanecarboxylic acid; 2,2,2-trifluoroacetic acid]
< 100 | COc1cnc(N2CC([C@H]3CCCN(C4CC(C)(C(=O)O)C4)C3)C2)nc1N[C@H](C)c1ccc(Cl)cc1Cl (single isomer, unassigned) [Example 83]
< 100 | C[C@@H](Nc1nc(N2CC(C3CCCN([C@H]4C[C@@H](O)C4)C3C(=O)O)C2)ncc1Cl)c1ccc(Cl)cc1Cl (stereo partly drawn) [Example 87, 3-[1-[5-chloro-4-[[(1R)-1-(2,4-dichlorophenyl)ethyl]amino]pyrimidin-2-yl]azetidin-3-yl]-1-(3-hydroxycyclobutyl)piperidine-2-carboxylic acid; 2,2,2-trifluoroacetic acid]
100 to 500 | C[C@@H](Nc1nc(N2CC([C@H]3CCCN(C4CC(C)(C(=O)O)C4)C3)C2)nc2nc[nH]c12)c1ccc(Cl)cc1Cl (single isomer, unassigned) [Example 69]
< 100 | CCc1nc(N2CC([C@H]3CCCN(C4CC(C)(C(=O)O)C4)C3)C2)nc(N[C@H](C)c2ccc(Cl)cc2Cl)c1Cl (single isomer, unassigned) [Example 77]
< 100 | C[C@@H](Nc1nc(N2CC([C@H]3CCCN([C@H]4C[C@@H](C(=O)O)C4)C3)C2)nc2ccccc12)c1ccc(Cl)cc1Cl [Example 95, 3-[(1S,3R)-3-[1-[4-[[(1R)-1-(2,4-dichlorophenyl)ethyl]amino]quinazolin-2-yl]azetidin-3-yl]-1-piperidyl]cyclobutanecarboxylic acid; 2,2,2-trifluoroacetic acid]
